In patent US20180037595A1, “BENZOXABOROLE COMPOUNDS AND USES THEREOF” (GLAXOSMITHKLINE INTELLECTUAL PROPERTY (NO.2) LIMITED, priority 2015, published 2018):
In brackets after ≈: the same amount, converted by molar mass. Counter-ions that a name gives are not always drawn. Like-named read-outs stand apart in the source and are kept apart here.

Assays:
[1] = tested on: A. baumannii ATCC 17978; test: General antimicrobial activity assay (CLSI broth microdilution); type: cell-based; details: Acinetobacter baumannii, ATCC17978, read-out: MIC: A. baumannii ATCC 17978
Procedure: (§1) Whole-cell antimicrobial activity was determined by broth microdilution using the Clinical and Laboratory Standards Institute (CLSI) recommended procedure, Document M7-A7, “Methods for Dilution Susceptibility Tests for Bacteria that Grow Aerobically”.

[2] = tested on: E. coli K12 tolC::Tn10; test: as above; type: cell-based; details: Escherichia coli, read-out: MIC: E. coli K12 tolC::Tn10
Procedure: as §1

[3] = tested on: E. coli K12; test: as above; type: cell-based; details: Escherichia coli, K12, read-out: MIC: E. coli K12
Procedure: as §1

[4] = tested on: P. aeruginosa PA01; test: as above; type: cell-based; details: Pseudomonas aeruginosa, PA01, read-out: MIC: P. aeruginosa PA01
Procedure: as §1

[5] = tested on: M. tuberculosis standard strain Mtb H37Rv; test: MIC determination against mycobacteria (resazurin microtiter assay); type: cell-based, Mycobacterium tuberculosis; details: for Selectivity Index (A/B): HepG2 cell 48 h Tox50 (A) / Mtb H37Rv MIC (B); for MIC: Mycobacterium tuberculosis, H37RV, read-out: Mtb H37Rv MIC (B)
[6] = biological target: Mtb LeuRS (Mycobacterium tuberculosis, UniProt P9WFV1); test: LeuRS aminoacylation assay, IC50 determination; type: biochemical, M. tuberculosis; details: read-out: Mtb LeuRS IC50
Procedure: For biochemical analyses an N-terminal six histidine-tagged LeuRS was over-expressed in Escherichia coli which were E. coli codon-optimised (GenScript, Piscataway N.J., USA), from human mitochondria and cytoplasm, and M. tuberculosis. N-terminal six histidine-tagged LeuRS proteins were over-expressed and purified according to Novagen (Madison, Wis., USA) using an E. coli BL21(DE3) T7 RNA polymerase over-expression strain.
Experiments were performed in 96-well microtiter plates, using 80 μL reaction mixtures containing 50 mM HEPES-KOH (pH 8.0), 30 mM MgCl2 30 mM KCl, 13 μM L-[^14C]leucine (306 mCi/mmol, Perkin-Elmer), 15 uM total E. coli tRNA (Roche, Switzerland), 0.02% (w/v) BSA, 1 mM DTT, 0.2 μM LeuRS and 4 mM ATP at 30° C. Reactions were started by the addition of 4 mM ATP. After 7 minutes, reactions were quenched and tRNA was precipitated by the addition of 50 μL of 10% (w/v) TCA and transferred to 96-well nitrocellulose membrane filter plates (Millipore Multiscreen HTS, MSHAN4B50). Each well was then washed three times with 100 μL of 5% TCA. Filter plates were then dried under a heat lamp and the precipitated L-[^14C]leucine tRNALeu were quantified by liquid scintillation counting using a Wallac MicroBeta Trilux model 1450 liquid scintillation counter (PerkinElmer, Waltham, Mass., USA). The only difference was with the human cytoplasmic LeuRS when we used tRNA isolated from Brewer's Yeast (Roche Diagnostics GmbH).
Reactions were initiated by the addition of 4 mM ATP. Reactions were stopped after 7 minutes then precipitated and counted to quantify radioactivity. IC50 values were determined using the Graphpad Prism software package (Graphpad Software Inc. (La Jolla, Calif., USA).

[7] = tested on: HepG2 cells; test: HepG2 cytotoxicity assay (resazurin); type: cell-based
[8] = biological target: Human cyto LeuRS (Homo sapiens, UniProt Q9P2J5); test: LeuRS aminoacylation assay, IC50 determination; type: biochemical
[9] = Homo sapiens, HepG2, 48 h, read-out: HepG2 cell 48 h Tox50 (A)

Sequence of Mtb LeuRS (P9WFV1 whole entry): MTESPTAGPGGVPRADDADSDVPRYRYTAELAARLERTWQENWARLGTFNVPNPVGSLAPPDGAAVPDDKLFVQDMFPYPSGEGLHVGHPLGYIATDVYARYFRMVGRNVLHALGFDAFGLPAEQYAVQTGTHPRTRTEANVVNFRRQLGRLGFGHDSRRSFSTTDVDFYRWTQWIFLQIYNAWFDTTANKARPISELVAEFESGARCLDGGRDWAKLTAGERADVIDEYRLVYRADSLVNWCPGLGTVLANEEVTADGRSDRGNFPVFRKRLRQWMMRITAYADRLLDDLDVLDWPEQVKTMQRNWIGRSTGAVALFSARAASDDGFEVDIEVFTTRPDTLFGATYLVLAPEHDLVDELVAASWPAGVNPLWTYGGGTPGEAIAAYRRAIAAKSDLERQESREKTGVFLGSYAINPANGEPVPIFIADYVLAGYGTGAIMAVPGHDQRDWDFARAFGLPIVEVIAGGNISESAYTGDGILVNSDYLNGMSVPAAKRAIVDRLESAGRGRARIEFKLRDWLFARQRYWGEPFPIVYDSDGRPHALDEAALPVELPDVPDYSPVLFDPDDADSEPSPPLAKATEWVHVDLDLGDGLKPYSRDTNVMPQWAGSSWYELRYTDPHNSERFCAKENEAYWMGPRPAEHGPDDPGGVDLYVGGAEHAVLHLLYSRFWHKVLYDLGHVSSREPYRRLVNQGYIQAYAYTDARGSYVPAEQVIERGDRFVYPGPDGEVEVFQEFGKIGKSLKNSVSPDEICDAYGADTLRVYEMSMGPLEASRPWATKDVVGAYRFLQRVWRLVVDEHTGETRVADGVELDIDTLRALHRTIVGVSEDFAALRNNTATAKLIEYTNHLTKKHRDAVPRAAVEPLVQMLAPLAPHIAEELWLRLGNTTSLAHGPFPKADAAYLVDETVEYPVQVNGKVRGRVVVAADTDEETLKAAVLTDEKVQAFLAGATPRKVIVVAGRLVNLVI
Sequence of Human cyto LeuRS (Q9P2J5 whole entry): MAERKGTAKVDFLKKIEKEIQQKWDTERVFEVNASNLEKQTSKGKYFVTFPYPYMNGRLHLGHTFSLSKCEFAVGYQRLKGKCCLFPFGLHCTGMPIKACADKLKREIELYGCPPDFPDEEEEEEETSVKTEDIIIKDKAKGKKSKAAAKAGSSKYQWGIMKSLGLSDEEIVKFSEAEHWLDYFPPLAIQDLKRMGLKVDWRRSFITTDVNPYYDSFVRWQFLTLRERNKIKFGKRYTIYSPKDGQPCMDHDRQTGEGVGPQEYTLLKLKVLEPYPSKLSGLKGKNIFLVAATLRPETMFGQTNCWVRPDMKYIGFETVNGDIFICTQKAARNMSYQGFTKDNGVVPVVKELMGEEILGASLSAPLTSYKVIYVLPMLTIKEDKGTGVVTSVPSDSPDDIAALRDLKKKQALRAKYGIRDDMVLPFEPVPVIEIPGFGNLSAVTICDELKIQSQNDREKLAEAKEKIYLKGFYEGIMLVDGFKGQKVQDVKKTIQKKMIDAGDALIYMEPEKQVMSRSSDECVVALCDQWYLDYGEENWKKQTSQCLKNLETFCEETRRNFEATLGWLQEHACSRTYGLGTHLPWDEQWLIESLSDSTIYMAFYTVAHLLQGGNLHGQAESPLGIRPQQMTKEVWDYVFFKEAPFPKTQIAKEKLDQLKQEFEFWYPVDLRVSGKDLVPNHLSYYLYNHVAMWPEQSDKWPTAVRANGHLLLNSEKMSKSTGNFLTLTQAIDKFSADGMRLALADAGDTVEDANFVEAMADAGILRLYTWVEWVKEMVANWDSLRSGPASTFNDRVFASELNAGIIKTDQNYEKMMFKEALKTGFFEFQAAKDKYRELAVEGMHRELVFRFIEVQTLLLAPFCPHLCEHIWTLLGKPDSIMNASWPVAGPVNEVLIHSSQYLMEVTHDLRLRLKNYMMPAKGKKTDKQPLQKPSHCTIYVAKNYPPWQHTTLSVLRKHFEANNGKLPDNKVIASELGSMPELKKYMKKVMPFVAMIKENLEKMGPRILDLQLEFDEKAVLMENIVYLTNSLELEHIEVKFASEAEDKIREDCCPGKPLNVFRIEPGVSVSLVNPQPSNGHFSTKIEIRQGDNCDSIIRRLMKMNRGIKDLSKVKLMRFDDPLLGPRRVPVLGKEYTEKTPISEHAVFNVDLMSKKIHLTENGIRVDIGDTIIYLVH

SMILES	MIC [1]	MIC [2]	MIC [3]	MIC [4]	Selectivity Index (A/B) [5]	MIC [5]	IC50 [6]	IC50 [7, 9]	further results
Cl.NCC1OB2OCCOc3ccc(F)c1c32 (centres unmarked) [Example 5]	> 64 µg/mL	64 µg/mL	32 µg/mL	4 µg/mL					
C[C@@]1(CO)COc2ccc(Br)c3c2B(OC3CN)O1 (stereo partly drawn) [Example 16, ((2S,8R, or 2R,8S)-2-(aminomethyl)-3-bromo-8-methyl-7,8-dihydro-2H-1,6,9-trioxa-9a-borabenzo[cd]azulen-8-yl)methanol]					>40	1.25 µM (≈ 0.41 µg/mL)	2.69 µM	> 50 µM	
NCCOc1cccc2c1B(O)OC2 [Example C3-H, reference compound]					>0.8		17.6 µM		IC50 [8]: 35.7 µM; IC50 ([7]; Homo sapiens, HepG2, 48 h; read-out: HepG2 cell 48 h Tox50 (A)): > 50 µM
CC1COc2c(Cl)cc(Cl)c3c2B(O1)OC3CN (centres unmarked) [Example C7-Cl2, reference compound]					>20		7.97 µM	> 50 µM	
CC1(C)COc2ccc(Cl)c3c2B(OC3CN)O1.Cl (centres unmarked) [Example 11, (3-chloro-8,8-dimethyl-7,8-dihydro-2H-1,6,9-trioxa-9a-borabenzo[cd]azulen-2-yl)methanamine hydrochloride]	> 64 µg/mL	> 64 µg/mL	> 64 µg/mL	> 64 µg/mL		0.27 µM	0.68 µM	> 50 µM	Selectivity Index (A/B) ([5]; listed as EXAMPLE 11 G11-Cl, hydrochloride): >185; Selectivity Index (A/B) ([5]; listed as Example 11 G11-CI, hydrochloride): > 185; IC50 [8]: > 300 µM
Cl.NCC1OB2OCCOc3ccc(Br)c1c32 (racemic) [Example 1, 3-bromo-7,8-dihydro-2H-1,6,9-trioxa-9a-borabenzo[cd]azulen-2-yl)methanamine hydrochloride]						0.18 µM	0.154 µM	> 50 µM	
C[C@@]1(CO)COc2ccc(Cl)c3c2B(OC3CN)O1 (single isomer, unassigned) [Example 14, ((2S,8R or 2R,8S)-2-(aminomethyl)-3-chloro-8-methyl-7,8-dihydro-2H-1,6,9-trioxa-9a-borabenzo[cd]azulen-8-yl)methanol]					>4	1.25 µM (≈ 0.354 µg/mL)	4.17 µM	> 50 µM	
Cl.NCC1OB2OCCOc3ccc(Cl)c1c32 (racemic) [Example 3]	> 64 µg/mL	> 64 µg/mL	> 64 µg/mL	> 64 µg/mL					Selectivity Index (A/B) ([5]; listed as EXAMPLE 3 G3-Br, hydrochloride): >106; Selectivity Index (A/B) ([5]; listed as Example 3 G3-CI, hydrochloride): > 106
C[C@]1(CO)COc2ccc(Cl)c3c2B(OC3CN)O1 (stereo partly drawn) [Example 15, ((2S,8S, or 2R,8R)-2-(aminomethyl)-3-chloro-8-methyl-7,8-dihydro-2H-1,6,9-trioxa-9a-borabenzo[cd]azulen-8-yl)methanol]					>50	0.93 µM (≈ 0.264 µg/mL)	3.13 µM	> 50 µM	
Cl.NC[C@H]1OB2O[C@H](CO)COc3ccc(F)c1c32 [Example 13, ((2S,8R)-2-(aminomethyl)-3-fluoro-7,8-dihydro-2H-1,6,9-trioxa-9a-borabenzo[cd]azulen-8-yl)methanol hydrochloride]					>10	0.55 µM	0.48 µM	> 50 µM	
NC[C@H]1OB2OCCOc3ccc(I)c1c32 [Example 6, (S)-(3-iodo-7,8-dihydro-2H-1,6,9-trioxa-9a-borabenzo[cd]azulen-2-yl)methanamine hydrochloride]						0.3 µM	0.33 µM	36.4 µM	
NC[C@H]1OB2OCCOc3c(Cl)ccc1c32 [Example C13-Cl, reference compound]					>10			> 50 µM	
CC1(C)COB2OC(CN)c3cccc(c32)O1 (centres unmarked) [Example C10-H, reference compound]						> 5 µM	> 300 µM	> 50 µM	
NC[C@H]1OB2OCCOc3c(Cl)cc(Cl)c1c32 [Example C14-Cl2, reference compound]					>10	> 5 µM	4.67 µM	> 50 µM	
C[C@]1(CO)COc2ccc(Br)c3c2B(O[C@@H]3CN)O1 [Example 17, ((2S,8S, or 2R,8R)-2-(aminomethyl)-3-bromo-8-methyl-7,8-dihydro-2H-1,6,9-trioxa-9a-borabenzo[cd]azulen-8-yl)methanol]					>50	0.925 µM (≈ 0.303 µg/mL)	1.97 µM	> 50 µM	
c1cc2c3c(c1)OCCOB3OC2 [Example C1-H, reference compound]							12.2 µM		IC50 [8]: 101 µM
CC1COc2cccc3c2B(O1)OC3CN (centres unmarked) [Example C11-H, reference compound]	4 µg/mL (≈ 18.3 µM)	2 µg/mL (≈ 9.13 µM)	2 µg/mL (≈ 9.13 µM)	2 µg/mL (≈ 9.13 µM)	>32		0.51 µM	> 50 µM	
Cl.NCC1OB2OCCOc3ccc(F)c1c32 (centres unmarked) [Example 5, (3-fluoro-7,8-dihydro-2H-1,6,9-trioxa-9a-borabenzo[cd]azulen-2-yl)methanamine hydrochloride)]						0.6 µM	0.46 µM	49.1 µM	
CC1COc2ccc(Cl)c3c2B(O1)OC3CN.Cl (centres unmarked) [Example 7, (3-chloro-8-methyl-7,8-dihydro-2H-1,6,9-trioxa-9a-borabenzo[cd]azulen-2-yl)methanamine hydrochloride]	> 64 µg/mL	> 64 µg/mL	> 64 µg/mL	> 64 µg/mL	>250	0.2 µM	1.08 µM	> 50 µM	IC50 [8]: > 300 µM
CC1(C)COB2OC(CN)c3c(Cl)ccc(c32)O1 (centres unmarked) [Example C9-Cl, reference compound]					>10		37.6 µM	> 50 µM	Selectivity Index (A/B) ([5]; listed as C9-CI): 10
CC1(C)COc2ccc(Br)c3c2B(O[C@@H]3CN)O1.Cl [Example 10, (S)-(3-bromo-8,8-dimethyl-7,8-dihydro-2H-1,6,9-trioxa-9a-borabenzo[cd]azulen-2-yl)methanamine hydrochloride]	> 64 µg/mL	> 64 µg/mL	> 64 µg/mL	> 64 µg/mL		0.16 µM	1.13 µM	460 µM	IC50 [8]: > 300 µM
CC1(C)COc2c(Cl)ccc3c2B(OC3CN)O1 (centres unmarked) [Example C8-Cl, reference compound]					10	> 5 µM	6.05 µM	> 50 µM	
Cl.NCC1OB2OCCOc3ccc(Br)c1c32 (racemic) [Example 1]	> 64 µg/mL	> 64 µg/mL	> 64 µg/mL	> 64 µg/mL					Selectivity Index (A/B) ([5]; listed as EXAMPLE 1 G1-Br, hydrochloride): >277; Selectivity Index (A/B) ([5]; listed as Example 1 G1-Br, hydrochloride): > 277
Cl.NCC1OB2OCCOc3ccc(Cl)c1c32 (racemic) [Example 3, 3-chloro-7,8-dihydro-2H-1,6,9-trioxa-9a-borabenzo[cd]azulen-2-yl)methanamine hydrochloride]						0.47 µM	0.244 µM	> 50 µM	
CC1(C)COc2cccc3c2B(OC3CN)O1 (centres unmarked) [Example C12-H, reference compound]	4 µg/mL (≈ 17.2 µM)	2 µg/mL (≈ 8.58 µM)	4 µg/mL (≈ 17.2 µM)	16 µg/mL (≈ 68.6 µM)	>4.9	> 5 µM	1.33 µM	24.5 µM	
